Data on 3 compounds can be found in patent US20240226115A1, “AXL INHIBITOR COMPOUNDS” (ARCUS BIOSCIENCES, INC., priority 2021, published 2024).

In general, IC50 refers to the concentration that inhibits the measured activity by half.

Test [1] concerns the target T1, Axl (Homo sapiens, UniProt P30530).
T1 sequence (P30530 26-894): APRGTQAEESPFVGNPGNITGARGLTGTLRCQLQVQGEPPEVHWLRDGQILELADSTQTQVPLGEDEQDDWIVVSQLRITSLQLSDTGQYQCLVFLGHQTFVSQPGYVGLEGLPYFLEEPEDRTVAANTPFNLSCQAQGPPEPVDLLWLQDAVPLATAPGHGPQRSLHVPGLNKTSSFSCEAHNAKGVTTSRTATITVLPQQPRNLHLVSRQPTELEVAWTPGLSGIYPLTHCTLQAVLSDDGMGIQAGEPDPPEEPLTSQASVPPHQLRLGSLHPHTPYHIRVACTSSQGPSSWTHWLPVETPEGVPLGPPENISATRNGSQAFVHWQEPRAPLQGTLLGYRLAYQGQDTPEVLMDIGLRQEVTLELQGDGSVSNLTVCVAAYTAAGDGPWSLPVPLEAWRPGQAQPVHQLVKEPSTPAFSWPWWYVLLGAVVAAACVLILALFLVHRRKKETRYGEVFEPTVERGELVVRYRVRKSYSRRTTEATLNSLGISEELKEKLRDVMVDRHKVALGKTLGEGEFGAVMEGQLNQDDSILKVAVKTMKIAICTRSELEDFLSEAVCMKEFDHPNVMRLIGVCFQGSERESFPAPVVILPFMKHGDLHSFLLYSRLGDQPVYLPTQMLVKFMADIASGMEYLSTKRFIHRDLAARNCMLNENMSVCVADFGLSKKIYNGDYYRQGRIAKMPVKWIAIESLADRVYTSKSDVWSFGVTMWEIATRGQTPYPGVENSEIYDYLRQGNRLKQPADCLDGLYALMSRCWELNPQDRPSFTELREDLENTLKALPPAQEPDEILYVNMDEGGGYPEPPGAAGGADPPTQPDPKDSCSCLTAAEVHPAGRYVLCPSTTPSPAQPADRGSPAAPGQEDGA
As to the kind of experiment: HTRF KinEASE-TK biochemical potency, AXL. On the set-up: purchased Invitrogen. Conditions: 5 nM AXL, 700 μM ATP. As to the method:
(§1) Purified recombinant human AXL, TYRO3 and MER proteins were purchased from Invitrogen™. 10 nM AXL, 2 nM TYRO3 or MER were incubated with varying concentrations of compounds in 50 mM HEPES, pH 7.4, 10 mM MgCl2, 0.01% BSA, 1 mM DTT and 2% DMSO in a total volume of 20 μl in a 384-well microplate (Corning™ #3640) at RT for 1 h. The AXL, TYRO3 and MER enzymatic reaction was initiated by transferring 10 μl of enzyme and compound mixture into 10 μl of 1.6 μM TK Substrate-biotin (HTRF® KinEASE-TK kit, Cisbio) and 1400 μM ATP pre-incubated in 50 mM HEPES, pH 7.4, 10 mM MgCl2, 0.01% BSA, 1 mM DTT in a 384-well microplate (Corning™ #3640) at RT, giving the final reaction conditions: 5 nM AXL, 1 nM TYRO3 or MER, 800 nM TK Substrate-biotin and 700 μM ATP in 50 mM HEPES, pH 7.4, 10 mM MgCl2, 0.01% BSA, 1 mM DTT and 1% DMSO with varying concentrations of compounds. Following 2 h incubation at RT, the AXL, TYRO3 and MER enzymatic reaction was stopped by transfer of 10 μl of reaction into 10 μl of detection mix (400 nM Streptavidin-XL665, 200-fold dilution TK Antibody-Cryptate and detection buffer, HTRF® KinEASE-TK kit, Cisbio) in a white 384-well microplate (Perkin Elmer, OptiPlate 384). After 1 h incubation at RT, the plate was put into a plate reader (Evision) to read at 665/620 nm (acceptor/donor) for HTRF. The value of the DMSO blank (MIN inhibition=100% activity) was used as a negative control. The positive control was established by adding 5 μl of enzyme and DMSO mixture into 10 μl of detection mix followed by addition of 5 μl of TK Substrate-biotin and ATP mixture (MAX inhibition=0% activity). To calculate the percent activity, Equation 1 was used. Ratio665/620 is the value at a given compound concentration: […]
On the technique in general: Time-resolved FRET reads energy transfer from a long-lived donor to a nearby acceptor.

For test [2], the target named is T1, Axl. As to the kind of experiment: Axl NanoBRET intracellular kinase assay (Cell Binding). Conditions: HEK-293 cells transfected with Axl-NanoLuc fusion vector; displacement of K-5 NanoBRET tracer. On the set-up: host or cells: HEK-293. As to the method: Axl NanoBRET™ intracellular kinase assay (Promega, N2540) was performed according to manufacturer's recommendation. In brief, HEK-293 cells are transiently transfected with Axl-NanoLuc fusion vector (Promega, NV1071), utilizing Fugene HD transfection reagent (Promega, E2311) a day before experiment following manufacturer's recommendation.
The day of the assay, the cells were collected and resuspended in Opti-MEM media (ThermoFisher, 31985070) at 2e5 cells/mL concentration. Testing compounds were serial diluted and dispensed into a white 384 well polystyrene plate at 200 nL in 100% DMSO. 40 μL of resuspended cells is then added per well for a final condition of 8K cells/well with 0.5% DMSO. After one-hour compound pre-incubation at 37° C. and 5% CO2, cells were further incubated with 0.35 μM K-5 NanoBRET tracer for two-hours at 37° C. and 5% CO2. […] of 3× substrate plus Inhibitor solution was prepared according to kits manual and added to the cells followed by a 30 second pulse centrifugation spin. The plate was then immediately read utilizing an Envision (Perkin Elmer) plate reader. The BRET signal is measured by taking the ratio of the emissions reading at 610 nm and 450 nm. Compound binding is based on the decrease BRET signal caused by the displacement of the K-5 tracer. […] IC50 value of compounds was determined by 4-parameter non-linear regression fitting of percent activity in GraphPad Prism software.
(In BRET a luciferase serves as donor, and the signal depends on an acceptor being close.)

In another test the target is T2, recombinant human TYRO3 (Homo sapiens, UniProt Q06418).
T2 construct: purchased Invitrogen
T2 sequence (Q06418 41-890): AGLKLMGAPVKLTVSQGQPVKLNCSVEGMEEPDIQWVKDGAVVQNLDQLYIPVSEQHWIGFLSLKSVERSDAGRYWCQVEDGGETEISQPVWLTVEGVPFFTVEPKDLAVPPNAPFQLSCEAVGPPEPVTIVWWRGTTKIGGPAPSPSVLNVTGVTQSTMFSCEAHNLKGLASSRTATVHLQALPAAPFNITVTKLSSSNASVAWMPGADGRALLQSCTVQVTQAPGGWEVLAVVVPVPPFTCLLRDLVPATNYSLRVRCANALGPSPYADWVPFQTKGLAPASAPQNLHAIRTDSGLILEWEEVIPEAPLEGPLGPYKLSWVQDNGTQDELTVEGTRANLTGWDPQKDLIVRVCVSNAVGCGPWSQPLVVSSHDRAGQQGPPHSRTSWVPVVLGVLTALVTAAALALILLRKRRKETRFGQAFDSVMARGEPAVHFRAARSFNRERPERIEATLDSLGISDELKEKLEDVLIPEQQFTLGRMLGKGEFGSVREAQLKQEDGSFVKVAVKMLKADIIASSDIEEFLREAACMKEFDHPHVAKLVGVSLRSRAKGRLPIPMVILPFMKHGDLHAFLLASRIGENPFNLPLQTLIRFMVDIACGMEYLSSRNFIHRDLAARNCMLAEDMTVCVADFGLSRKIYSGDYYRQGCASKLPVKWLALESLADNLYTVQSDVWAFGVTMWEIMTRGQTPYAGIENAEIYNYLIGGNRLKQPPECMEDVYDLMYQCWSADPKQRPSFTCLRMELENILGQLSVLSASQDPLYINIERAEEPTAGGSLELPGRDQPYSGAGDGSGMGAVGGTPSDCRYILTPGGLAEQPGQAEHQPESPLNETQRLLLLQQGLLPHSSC
As to the kind of experiment: HTRF KinEASE-TK biochemical potency, TYRO3. Particulars: 1 nM TYRO3, 700 μM ATP. As to the method:
as §1

Molecules are shown by their SMILES.

For `O=C1NCCOc2cc(-c3n[nH]c4ncc(-c5cc(Cl)c6c(c5)CCN(C5CCCC5)C6)cc34)ccc21` [Example 8, 8-[5-(8-Chloro-2-cyclopentyl-1,2,3,4-tetrahydroisoquinolin-6-yl)-1H-pyrazolo[3,4-b]pyridin-3-yl]-2,3,4,5-tetrahydro-1,4-benzoxazepin-5-one], the results for the IC50 on Axl [1] and on Axl [2] were 100 to 1000 nM and over 1000 nM, respectively.
On to `FC1(F)Oc2ccc(-c3n[nH]c4ncc(-c5ccc6c(c5)CCN(C5CCCC5)CC6)cc34)cc2O1` [Example 14, 3-Cyclopentyl-7-(3-(2,2-difluorobenzo[d][1,3]dioxol-5-yl)-1H-pyrazolo[3,4-b]pyridin-5-yl)-2,3,4,5-tetrahydro-1H-benzo[d]azepine], for which the IC50 against Axl [1] and at Axl [2] was over 1000 nM throughout.
Turning to `CS(=O)(=O)N1CCc2ccc(-c3cnc4[nH]nc(-c5ccc6c(c5)OCCNC6=O)c4c3)cc2CC1` [Example 18, 8-[5-(3-Methanesulfonyl-2,3,4,5-tetrahydro-1H-3-benzazepin-7-yl)-1H-pyrazolo[3,4-b]pyridin-3-yl]-2,3,4,5-tetrahydro-1,4-benzoxazepin-5-one], the half-maximal inhibitory concentration (IC50) against Axl [1] is under 100 nM; at recombinant human TYRO3 it was under 100 nM; at Axl [2], over 1000 nM.
